Measurements reported in the kinase profiling compilation of Christmann-Franck et al. (2016).

How the values were obtained:
Assay in all cases: KINOMEscan competition binding
Settings in all cases: compound 10.0 µM
TLK1 (human) = TLK1 (human) (UniProt Q9UKI8)
PRKG2 (human) = PRKG2 (human) (UniProt Q13237)
PHKG2 (human) = PHKG2 (human) (UniProt P15735)
RIPK4 (human) = RIPK4 (human) (UniProt P57078)
CSNK1D (human) = CSNK1D (human) (UniProt P48730)
PAK4 (human) = PAK4 (human) (UniProt O96013)
DDR1 (human) = DDR1 (human) (UniProt Q08345)
PRKCQ (human) = PRKCQ (human) (UniProt Q04759)
ERBB4 (human) = ERBB4 (human) (UniProt Q15303)
BMPR1A (human) = BMPR1A (human) (UniProt P36894)
[1] = tested on: MET (human), P08581 [M1250T]
MAP3K4 (human) = MAP3K4 (human) (UniProt Q9Y6R4)
FGFR4 (human) = FGFR4 (human) (UniProt P22455)
PAK6 (human) = PAK6 (human) (UniProt Q9NQU5)
MAP2K1 (human) = MAP2K1 (human) (UniProt Q02750)
SRPK3 (human) = SRPK3 (human) (UniProt Q9UPE1)
NTRK1 (human) = NTRK1 (human) (UniProt P04629)
CDC42BPB (human) = CDC42BPB (human) (UniProt Q9Y5S2)
IRAK4 (human) = IRAK4 (human) (UniProt Q9NWZ3)
CAMKK2 (human) = CAMKK2 (human) (UniProt Q96RR4)
PRKX (human) = PRKX (human) (UniProt P51817)
ERN1 (human) = ERN1 (human) (UniProt O75460)
AKT1 (human) = AKT1 (human) (UniProt P31749)
PRKACA (human) = PRKACA (human) (UniProt P17612)
ACVR2A (human) = ACVR2A (human) (UniProt P27037)
CDK15 (human) = CDK15 (human) (UniProt Q96Q40)
CDK7 (human) = CDK7 (human) (UniProt P50613)
MAP3K12 (human) = MAP3K12 (human) (UniProt Q12852)
RPS6KA5 KD1 (human) = RPS6KA5 KD1 (human) (UniProt O75582)
MARK1 (human) = MARK1 (human) (UniProt Q9P0L2)
ACVR1B (human) = ACVR1B (human) (UniProt P36896)
STK4 (human) = STK4 (human) (UniProt Q13043)
HIPK3 (human) = HIPK3 (human) (UniProt Q9H422)
MLTK (human) = MLTK (human) (UniProt Q9NYL2)
MARK2 (human) = MARK2 (human) (UniProt Q7KZI7)
EPHB3 (human) = EPHB3 (human) (UniProt P54753)
PLK2 (human) = PLK2 (human) (UniProt Q9NYY3)
DCLK1 (human) = DCLK1 (human) (UniProt O15075)
ULK2 (human) = ULK2 (human) (UniProt Q8IYT8)
IRAK3 (human) = IRAK3 (human) (UniProt Q9Y616)
Chain of IRAK3 (human) (Q9Y616 whole entry, looked up): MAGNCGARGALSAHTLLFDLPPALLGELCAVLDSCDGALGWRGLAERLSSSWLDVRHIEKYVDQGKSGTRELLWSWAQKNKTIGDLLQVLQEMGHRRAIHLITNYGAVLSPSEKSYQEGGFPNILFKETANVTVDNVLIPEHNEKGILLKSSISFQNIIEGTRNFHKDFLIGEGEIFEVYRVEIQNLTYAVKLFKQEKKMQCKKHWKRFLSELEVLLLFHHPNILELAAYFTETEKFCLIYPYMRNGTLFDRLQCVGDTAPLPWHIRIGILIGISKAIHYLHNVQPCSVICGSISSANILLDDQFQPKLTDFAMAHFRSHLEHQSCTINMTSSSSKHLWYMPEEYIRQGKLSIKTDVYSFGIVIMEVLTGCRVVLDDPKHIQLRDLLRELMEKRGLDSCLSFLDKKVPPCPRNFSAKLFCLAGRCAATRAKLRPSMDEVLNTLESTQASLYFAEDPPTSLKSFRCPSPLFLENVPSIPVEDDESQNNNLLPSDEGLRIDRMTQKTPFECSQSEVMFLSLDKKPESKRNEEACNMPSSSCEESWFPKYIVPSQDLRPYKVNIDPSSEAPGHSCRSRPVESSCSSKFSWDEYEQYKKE

Chain of PAK6 (human) (Q9NQU5 whole entry, looked up): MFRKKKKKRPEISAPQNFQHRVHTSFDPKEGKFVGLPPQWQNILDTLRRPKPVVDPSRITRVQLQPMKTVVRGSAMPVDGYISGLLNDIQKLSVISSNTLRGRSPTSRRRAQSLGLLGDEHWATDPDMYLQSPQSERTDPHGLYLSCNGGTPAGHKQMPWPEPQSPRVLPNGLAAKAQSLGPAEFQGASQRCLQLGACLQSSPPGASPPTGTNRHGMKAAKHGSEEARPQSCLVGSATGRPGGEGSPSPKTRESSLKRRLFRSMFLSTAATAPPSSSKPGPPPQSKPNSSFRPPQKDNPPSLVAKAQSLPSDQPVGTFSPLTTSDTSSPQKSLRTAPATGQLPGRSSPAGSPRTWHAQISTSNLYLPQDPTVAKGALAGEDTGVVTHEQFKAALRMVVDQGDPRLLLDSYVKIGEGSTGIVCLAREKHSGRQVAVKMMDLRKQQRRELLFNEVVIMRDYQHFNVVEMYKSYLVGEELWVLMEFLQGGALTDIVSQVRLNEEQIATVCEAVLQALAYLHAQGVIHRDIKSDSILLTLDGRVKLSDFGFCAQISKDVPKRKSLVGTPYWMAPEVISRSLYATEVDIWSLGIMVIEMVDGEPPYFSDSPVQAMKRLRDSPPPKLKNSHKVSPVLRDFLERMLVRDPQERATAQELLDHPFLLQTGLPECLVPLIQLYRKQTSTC
Chain of CDK15 (human) (Q96Q40 whole entry, looked up): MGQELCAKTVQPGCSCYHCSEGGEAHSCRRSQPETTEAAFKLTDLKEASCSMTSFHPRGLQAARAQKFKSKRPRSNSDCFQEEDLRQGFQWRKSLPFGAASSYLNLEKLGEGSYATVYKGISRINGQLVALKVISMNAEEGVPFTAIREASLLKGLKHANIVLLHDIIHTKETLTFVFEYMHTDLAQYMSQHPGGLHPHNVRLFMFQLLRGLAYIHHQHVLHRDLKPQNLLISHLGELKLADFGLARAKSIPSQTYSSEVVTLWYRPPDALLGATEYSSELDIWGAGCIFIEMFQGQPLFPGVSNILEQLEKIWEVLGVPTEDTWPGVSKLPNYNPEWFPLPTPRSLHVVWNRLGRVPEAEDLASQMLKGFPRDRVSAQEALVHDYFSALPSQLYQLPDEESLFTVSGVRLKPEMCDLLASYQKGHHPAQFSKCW
Chain of CAMKK2 (human) (Q96RR4 whole entry, looked up): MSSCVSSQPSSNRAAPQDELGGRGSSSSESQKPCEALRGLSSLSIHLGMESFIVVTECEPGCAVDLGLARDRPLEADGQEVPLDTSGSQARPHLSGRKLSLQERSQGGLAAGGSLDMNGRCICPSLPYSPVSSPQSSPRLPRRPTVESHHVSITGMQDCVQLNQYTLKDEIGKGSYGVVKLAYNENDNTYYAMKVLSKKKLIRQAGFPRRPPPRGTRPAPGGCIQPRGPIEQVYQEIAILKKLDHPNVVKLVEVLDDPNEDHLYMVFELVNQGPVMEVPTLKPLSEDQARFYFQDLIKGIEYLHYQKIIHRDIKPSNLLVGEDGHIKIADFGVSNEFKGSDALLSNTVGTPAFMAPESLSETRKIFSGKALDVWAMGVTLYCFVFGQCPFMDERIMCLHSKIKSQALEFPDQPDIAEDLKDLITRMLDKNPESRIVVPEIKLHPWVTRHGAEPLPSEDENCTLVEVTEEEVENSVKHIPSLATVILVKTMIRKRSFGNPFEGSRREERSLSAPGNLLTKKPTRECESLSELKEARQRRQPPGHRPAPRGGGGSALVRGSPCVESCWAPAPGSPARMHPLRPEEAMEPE
Chain of PHKG2 (human) (P15735 whole entry, looked up): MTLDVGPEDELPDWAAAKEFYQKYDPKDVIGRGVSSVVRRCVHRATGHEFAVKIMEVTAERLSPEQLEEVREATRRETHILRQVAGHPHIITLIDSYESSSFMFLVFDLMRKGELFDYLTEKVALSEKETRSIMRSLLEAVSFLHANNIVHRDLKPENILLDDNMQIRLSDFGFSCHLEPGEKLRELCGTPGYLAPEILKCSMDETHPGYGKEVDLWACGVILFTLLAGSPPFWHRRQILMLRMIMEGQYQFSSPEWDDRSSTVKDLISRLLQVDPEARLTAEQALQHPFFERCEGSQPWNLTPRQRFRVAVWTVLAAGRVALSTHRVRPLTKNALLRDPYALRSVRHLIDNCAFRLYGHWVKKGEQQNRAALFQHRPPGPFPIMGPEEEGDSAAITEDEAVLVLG
Chain of PRKCQ (human) (Q04759 whole entry, looked up): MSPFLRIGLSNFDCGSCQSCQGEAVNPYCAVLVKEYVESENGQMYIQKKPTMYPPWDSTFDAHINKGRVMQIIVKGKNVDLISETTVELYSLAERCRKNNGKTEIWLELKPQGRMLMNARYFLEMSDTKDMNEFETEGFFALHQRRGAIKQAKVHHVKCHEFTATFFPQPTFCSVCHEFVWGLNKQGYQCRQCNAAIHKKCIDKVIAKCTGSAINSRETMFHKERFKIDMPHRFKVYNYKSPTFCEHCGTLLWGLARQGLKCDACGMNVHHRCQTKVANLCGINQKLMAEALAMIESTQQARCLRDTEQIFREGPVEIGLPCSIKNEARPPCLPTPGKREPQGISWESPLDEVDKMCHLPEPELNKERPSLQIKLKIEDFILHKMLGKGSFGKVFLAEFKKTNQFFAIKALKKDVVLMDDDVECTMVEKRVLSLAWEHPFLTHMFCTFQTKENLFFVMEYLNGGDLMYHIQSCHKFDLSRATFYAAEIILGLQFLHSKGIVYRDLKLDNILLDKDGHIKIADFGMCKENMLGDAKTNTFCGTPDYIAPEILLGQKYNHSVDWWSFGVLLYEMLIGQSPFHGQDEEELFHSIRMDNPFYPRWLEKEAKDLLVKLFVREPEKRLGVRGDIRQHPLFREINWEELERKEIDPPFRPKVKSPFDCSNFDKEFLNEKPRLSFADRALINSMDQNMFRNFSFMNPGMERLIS
Chain of ERN1 (human) (O75460 whole entry, looked up): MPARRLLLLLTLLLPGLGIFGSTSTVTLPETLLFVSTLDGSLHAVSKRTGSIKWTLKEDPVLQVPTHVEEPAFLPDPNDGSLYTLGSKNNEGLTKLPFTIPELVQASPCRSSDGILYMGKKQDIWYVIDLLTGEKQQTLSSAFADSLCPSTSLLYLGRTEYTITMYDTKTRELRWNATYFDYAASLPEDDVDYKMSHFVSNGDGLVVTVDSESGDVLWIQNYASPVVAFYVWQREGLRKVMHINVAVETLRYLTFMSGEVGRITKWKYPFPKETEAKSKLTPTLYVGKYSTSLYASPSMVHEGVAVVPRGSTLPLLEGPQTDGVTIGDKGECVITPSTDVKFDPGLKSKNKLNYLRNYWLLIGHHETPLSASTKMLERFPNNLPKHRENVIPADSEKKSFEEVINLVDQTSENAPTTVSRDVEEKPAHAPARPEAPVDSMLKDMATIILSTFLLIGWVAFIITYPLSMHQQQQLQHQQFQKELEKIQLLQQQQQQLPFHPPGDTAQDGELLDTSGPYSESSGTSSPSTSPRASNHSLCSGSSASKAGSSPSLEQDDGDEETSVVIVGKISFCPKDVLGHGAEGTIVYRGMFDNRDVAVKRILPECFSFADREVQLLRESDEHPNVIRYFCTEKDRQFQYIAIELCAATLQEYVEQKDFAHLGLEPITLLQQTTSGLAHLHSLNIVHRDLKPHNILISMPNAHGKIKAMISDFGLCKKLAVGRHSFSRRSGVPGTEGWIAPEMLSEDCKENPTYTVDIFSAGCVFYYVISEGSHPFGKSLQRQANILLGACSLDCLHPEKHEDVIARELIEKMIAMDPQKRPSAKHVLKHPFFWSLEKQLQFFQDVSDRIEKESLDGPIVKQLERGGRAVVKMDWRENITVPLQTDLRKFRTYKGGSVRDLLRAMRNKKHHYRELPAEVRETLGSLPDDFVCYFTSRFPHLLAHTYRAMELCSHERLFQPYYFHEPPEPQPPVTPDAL
Chain of CSNK1D (human) (P48730 whole entry, looked up): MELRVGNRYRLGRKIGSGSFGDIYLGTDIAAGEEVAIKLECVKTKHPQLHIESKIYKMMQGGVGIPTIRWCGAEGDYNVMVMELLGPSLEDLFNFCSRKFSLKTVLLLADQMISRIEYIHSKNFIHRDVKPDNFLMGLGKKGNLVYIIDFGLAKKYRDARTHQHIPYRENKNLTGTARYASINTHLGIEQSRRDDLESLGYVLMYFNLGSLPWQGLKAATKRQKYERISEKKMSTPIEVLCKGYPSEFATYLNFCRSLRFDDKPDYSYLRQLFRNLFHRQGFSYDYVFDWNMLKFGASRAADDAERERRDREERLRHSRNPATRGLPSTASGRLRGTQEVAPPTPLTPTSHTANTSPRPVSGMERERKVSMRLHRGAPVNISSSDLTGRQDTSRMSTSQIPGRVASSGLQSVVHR

| Compound | kinase still bound, per cent of control (TLK1 (human)) | kinase still bound, per cent of control (PRKG2 (human)) | kinase still bound, per cent of control (PHKG2 (human)) | kinase still bound, per cent of control (RIPK4 (human)) | kinase still bound, per cent of control (CSNK1D (human)) | kinase still bound, per cent of control (PAK4 (human)) | kinase still bound, per cent of control (DDR1 (human)) | kinase still bound, per cent of control (PRKCQ (human)) | kinase still bound, per cent of control (ERBB4 (human)) | kinase still bound, per cent of control (BMPR1A (human)) | kinase still bound, per cent of control [1] | kinase still bound, per cent of control (MAP3K4 (human)) | kinase still bound, per cent of control (FGFR4 (human)) | kinase still bound, per cent of control (PAK6 (human)) | kinase still bound, per cent of control (MAP2K1 (human)) | kinase still bound, per cent of control (SRPK3 (human)) | kinase still bound, per cent of control (NTRK1 (human)) | kinase still bound, per cent of control (CDC42BPB (human)) | kinase still bound, per cent of control (IRAK4 (human)) | kinase still bound, per cent of control (CAMKK2 (human)) | also measured |
| --- | --- | --- | --- | --- | --- | --- | --- | --- | --- | --- | --- | --- | --- | --- | --- | --- | --- | --- | --- | --- | --- |
| N#C/C(=C1/Nc2ccccc2S1)c1ccnc(NCCc2cccnc2)n1 | 57% | 81% | 78% | 8% | 42% | 78% | 100% | 100% | 63% | 98% | 100% | 100% | 100% | 78% | 9.6% | 23% | 57% | 81% | 48% | 54% | kinase still bound, per cent of control (PRKX (human)): 81%; kinase still bound, per cent of control (ERN1 (human)): 79%; kinase still bound, per cent of control (AKT1 (human)): 100%; kinase still bound, per cent of control (PRKACA (human)): 100%; kinase still bound, per cent of control (ACVR2A (human)): 86%; kinase still bound, per cent of control (CDK15 (human)): 86%; kinase still bound, per cent of control (CDK7 (human)): 16%; kinase still bound, per cent of control (MAP3K12 (human)): 81%; kinase still bound, per cent of control (RPS6KA5 KD1 (human)): 100%; kinase still bound, per cent of control (MARK1 (human)): 100%; kinase still bound, per cent of control (ACVR1B (human)): 84%; kinase still bound, per cent of control (STK4 (human)): 100%; kinase still bound, per cent of control (HIPK3 (human)): 0.25%; kinase still bound, per cent of control (MLTK (human)): 97%; kinase still bound, per cent of control (MARK2 (human)): 75%; kinase still bound, per cent of control (EPHB3 (human)): 100%; kinase still bound, per cent of control (PLK2 (human)): 47%; kinase still bound, per cent of control (DCLK1 (human)): 78%; kinase still bound, per cent of control (ULK2 (human)): 83%; kinase still bound, per cent of control (IRAK3 (human)): 38% |
| CCCS(=O)(=O)Nc1ccc(F)c(C(=O)c2c[nH]c3ncc(Cl)cc23)c1F | 58% | 93% | 52% | 89% | 91% | 57% | 1.6% | 79% | 73% | 13% | 78% | 92% | 100% | 45% | 0.8% | 100% | 100% | 100% | 86% | 79% | kinase still bound, per cent of control (PRKX (human)): 100%; kinase still bound, per cent of control (ERN1 (human)): 78%; kinase still bound, per cent of control (AKT1 (human)): 100%; kinase still bound, per cent of control (PRKACA (human)): 94%; kinase still bound, per cent of control (ACVR2A (human)): 100%; kinase still bound, per cent of control (CDK15 (human)): 100%; kinase still bound, per cent of control (CDK7 (human)): 69%; kinase still bound, per cent of control (MAP3K12 (human)): 52%; kinase still bound, per cent of control (RPS6KA5 KD1 (human)): 100%; kinase still bound, per cent of control (MARK1 (human)): 74%; kinase still bound, per cent of control (ACVR1B (human)): 98%; kinase still bound, per cent of control (STK4 (human)): 38%; kinase still bound, per cent of control (HIPK3 (human)): 46%; kinase still bound, per cent of control (MLTK (human)): 6%; kinase still bound, per cent of control (MARK2 (human)): 92%; kinase still bound, per cent of control (EPHB3 (human)): 100%; kinase still bound, per cent of control (PLK2 (human)): 83%; kinase still bound, per cent of control (DCLK1 (human)): 52%; kinase still bound, per cent of control (ULK2 (human)): 60%; kinase still bound, per cent of control (IRAK3 (human)): 26% |
| CNC(=O)Nc1ccc(-c2nc(N3CC4CCC(C3)O4)c3cnn(C4CCC5(CC4)OCCO5)c3n2)cc1 | 86% | 88% | 96% | 98% | 92% | 100% | 66% | 100% | 100% | 93% | 87% | 86% | 62% | 100% | 100% | 100% | 100% | 100% | 100% | 100% | kinase still bound, per cent of control (PRKX (human)): 100%; kinase still bound, per cent of control (ERN1 (human)): 93%; kinase still bound, per cent of control (AKT1 (human)): 81%; kinase still bound, per cent of control (PRKACA (human)): 75%; kinase still bound, per cent of control (ACVR2A (human)): 78%; kinase still bound, per cent of control (CDK15 (human)): 100%; kinase still bound, per cent of control (CDK7 (human)): 88%; kinase still bound, per cent of control (MAP3K12 (human)): 93%; kinase still bound, per cent of control (RPS6KA5 KD1 (human)): 86%; kinase still bound, per cent of control (MARK1 (human)): 100%; kinase still bound, per cent of control (ACVR1B (human)): 100%; kinase still bound, per cent of control (STK4 (human)): 100%; kinase still bound, per cent of control (HIPK3 (human)): 42%; kinase still bound, per cent of control (MLTK (human)): 77%; kinase still bound, per cent of control (MARK2 (human)): 100%; kinase still bound, per cent of control (EPHB3 (human)): 92%; kinase still bound, per cent of control (PLK2 (human)): 100%; kinase still bound, per cent of control (DCLK1 (human)): 100%; kinase still bound, per cent of control (ULK2 (human)): 90%; kinase still bound, per cent of control (IRAK3 (human)): 100% |
